Measurements published in patent publication US20260263401A1, “Topical composition and uses thereof” (UNIVERSIDADE DE COIMBRA, priority 2022, published 2026).
“And” between values parts separate entries of the source, which are not always exact repeats. Equal entries are not always repeated. “Also recorded” adds a separate entry of the source.

How the values were obtained:
[1] = system: NRF2 dependent genes in HaCaT; assay: Expression of NRF2 dependent genes in keratinocytes (real time PCR); assay type: cell-based, human; settings: 6 h
Experimental: HaCaT is cultured with Dulbecco's Modified Eagle's Medium (DMEM) (Sigma-Aldrich, St. Louis, MO, USA), supplemented with 10% (v/v) heat-inactivated fetal bovine serum (FBS), 1% (v/v) antibiotic solution (100 U/mL penicillin, 100 μg/mL streptomycin) (Gibco, Carlsbad, CA, USA), 3.7 g/L sodium bicarbonate and 1 mM sodium pyruvate (Sigma-Aldrich, St. Louis, MO, USA).
In an embodiment, HaCaT cells are seeded in 6-well plates at a density of 6×10^5 cells/well and allowed to adhere for 24 h. After that, cells are incubated for 24 h with exposure medium (control) or treated with 10 mM of NAC, 10 mM of LYS, 8 μM of DNFB, 100 μM of MI, or 10 mM+DNFB, 10 mM LYS+DNFB and 10 mM+MI, 10 mM LYS+MI for 6 h or 24 h.
In an embodiment, total RNA (ribonucleic acid) is extracted from HaCaT treated cells, as previously described by our group [37], with NZYol reagent, according to the manufacturer's instructions and its concentration is determined by OD260 measurement using a NanoDrop spectrophotometer (Thermo Scientific, Wilmington, DE, USA). Samples are stored in RNA Storage Solution at −80° C. until use. Total RNA (1 g) is reverse-transcribed using the iScript Select cDNA Synthesis Kit, and real-time reverse transcriptase-polymerase chain reaction (RT-PCR) reactions are performed, in duplicate for each sample, on a Bio-Rad MyCycler iQ5 (Hercules, CA, USA), as previously described by our group [38].
In an embodiment, after amplification, a threshold is set for each gene and Ct values are calculated for all samples. Gene expression changes are analyzed using Bio-Rad CFX Maestro 1.1 system software (Hercules, CA, USA). The results are normalized using Hprt-1 as the reference gene. Primer sequences are designed using Beacon Designer software version 7.7 (Premier Biosoft International, Palo Alto, CA, USA) and thoroughly tested.

THP-1 cells = assay: Maturation of THP-1 cells assessed by up-regulation of co-stimulatory molecules CD86 and CD54; settings: for CD54 and CD86 maturation levels, pre-incubation before allergen: pre-incubation (20 mM) before 24 h DNFB (8 μM) and MI (100 μM); for levels of CD54 and CD86, allergen alone: 24 h, DNFB 8 μM, MI 100 μM
Experimental: In an embodiment, the THP-1 cell line has been used as a dendritic cell (DC) surrogate for skin sensitizers hazard, following the OECD guidelines. […] The THP-1 cells are stabilized overnight at a density of 5×10^5 cells/mL. On the day after, cells are seeded in 12-well plates at a density of 8×10^5 cells/well and incubated for 24 h with medium (control), Dimethyl sulfoxide (DMSO) (allergens solvent) or with 20 mM of each inhibitor of ACD (NAC), (LYS) or mixture (NAC+LYS). In addition, sensitization is induced with the strong skin allergen 1-fluoro-2,4-dinitrobenzene (DNFB) (8 μM) or Methylisothiazolinone (MI) (100 μM) for 24 h. At the end of the incubation period, cells are washed with ice-cold PBS supplemented with 1% (v/v) inactivated FBS, centrifuged at 300×g for 5 min at 4° C. and pellets are dissolved in ice-cold PBS supplemented with 1% (v/v) inactivated FBS. Then, 100 µL of the cell suspension are incubated with, or without, 3 μL of anti-human CD54 antibody (#353111, Biolegend, San Diego, CA, USA) or anti-human CD86 (#305414, Biolegend, San Diego, CA, USA) antibody for 30 min at 4° C. […] A total of 1×10^4 living cells are considered for analysis. The CD86 and CD54 levels are analyzed by flow cytometry with the acquisition channels FL1 and FL4. Based on the geometric mean fluorescence intensity (MFI), the relative fluorescence intensity (RFI) of CD86 and CD54 for positive control cells and chemical-treated cells is calculated according to the following equation: […]

BALB/c mice = assay: Murine local lymph node assay (BRDU-LLNA, flow cytometry); settings: for skin ulcerations, allergen alone (mice ears): topical on ears, days 1-3
Experimental: In vivo validation of the efficacy of the hydrogel enriched with the best mixture of molecules, to avoid the development of skin sensitization using the murine local lymph node assay (LLNA)
This event can be confirmed using the in vivo test Local lymph node assay (LLNA), which is evaluated by flow cytometry (FCM) using the OECD Guideline for the testing of chemicals: BRDU (bromodeoxyuridine) ELISA (enzyme linked immunosorbent assay) or FCM 442B, as previously described and revised on OECD TG 442B [41].
During the entire procedure, the daily weight record is made to assess the welfare of the animals. […]
In an embodiment, on day 5, animals are intraperitoneally injected with 100 μl of BrdU mixture (20 mg/mL) in PBS. […] LNCs are stained with trypan blue (Sigma) and counted using a hemocytometer. LNCs (1.5×10^6 cells/mL) are prepared using a commercially FITC BrdU Flow Kit-Catalog No. 559619 (BD Biosciences, San Jose, CA, USA) and further analyzed by flow cytometry using a BD Accuri™ C6 Flow Cytometer (BD Biosciences, San Jose, CA, USA). Stimulation index (SI) values for each sample are calculated using the formula described in the OECD test guideline (TG 442B) [41].

[2] = chelating agent; cited from earlier work
[3] = system: Poly-L-Lysine Hydrobromide (PLL); assay: Lysine depletion protocol (in chemico reactivity towards lysine); settings: 20 mM molecule incubated 1 h with DNFB 5 mM; FIG. 1B
Experimental: In an embodiment, a Lysine depletion Protocol—“in house development protocol” was applied, comprising: Dissolve 0.01 g of Poly-L-Lysine Hydrobromide (PLL) (Sigma, P1399) in 100 mL of purified water (use within 2 months). Filter the solution with a syringe filter to remove aggregates and store ate 4° C. for further use. For plate coating add 50 μL of PLL to each well of the 96 black bottom glass microplate (Corning ref 45806) and incubate for 2 hours at 37° C. or 24 h at room temperature.
In an embodiment, after the coating procedure, the contents of the plate were discarded into a sink and the plate is washed 3 times with 200 μL of PBS per well. Blot any residual PBS by firmly tapping the plate upside-down on absorbent paper. 20 mM of each potential ACD inhibitory molecule/mixture is added and incubated with 70 μl of the strong skin sensitizer 1-fluoro-2,4-dinitrobenzene (DNFB) (5 mM in DMSO) for 1h; the mixture was transferred to the plate and incubated for 24 h at 37° C. The contents of the plate were discarded and the wells were washed 3 times with PBS as previously reported. 70 μL of 10 μM Fluorescein-5-Ex-Succinimidyl Ester (FSE) were added and incubated for 1 h in the dark at 37° C. The contents of the plate were discarded; the wells were washed 3 times with PBS as previously stated. The fluorescence was read in a microplate reader (Exc 485±20 nm and Em 530±30 nm). Synergy™ HT plate reader (BioTek Instruments, Inc., Winooski, VT, USA): Bottom read with a sensibility of 50. […]
In an embodiment, Reference control A is made with the solvent DMSO, with incubation with FSE and is used to calculate the maximum fluorescence or absorbance in the presence of LYS. […]
In an embodiment, Test chemicals were pre-weighted into 1.5 mL test tubes and dissolved in 1 mL of DMSO to prepare a 100 mM solution immediately before use. The weight of the test chemical to be added to the vial was determined based on the molecular weight and purity. […]
In an embodiment, for the data Analysis the percentage of peptide depletion is determined by using the following formula: […]

[4] = Cysteine depletion protocol (glutathione in solution depletion); settings: FIG. 1A
Experimental: In an embodiment, Cysteine depletion Protocol-Glutathione in solution depletion protocol—“in house development protocol” was applied: • In a test tube, mix 10 μL of the 100 mM test chemical solution with 190 μL of GSH solution (20 μL of GSH 2 mM and 170 μL of PB) and Incubated at RT, protected from light, for 1 h in a tube roller (40 rpm) • […]; [test chemical]f=5 mM; [GSH]f=0.2 mM; • 20 μL of Ellman's reagent 10 mM, a thiol sensitive colorimetric reagent was added. Mix gently by tapping manually in the test tube and incubate for 10 min at RT, in a test tube rotator protected from light; • The absorbance was read in a microplate reader at 405 nm. • Note: For each assay, a fresh Glutathione stock of 50 mM (0.00768 g in 500 μL of PBS) and the second stock of 2 mM in PBS (2 μL of the […] solution+48 μl of PBS) were freshly prepared.
In an embodiment, Control and Test Chemical Preparation was applied: • DNFB is used as the positive control for the assay in every assay run. For the negative control LA is used and for the reference control three types of reference controls are included in each study: • Reference control A is made with the solvent DMSO, with incubation with Ellman's reagent and is used to calculate the maximum fluorescence or absorbance in the presence of CYS containing peptides. […]
Test Chemicals: In an embodiment, test chemicals were pre-weighted into 1.5 mL test tubes and dissolved in 1 mL of DMSO to prepare a 100 mM solution immediately before use. The weight of the test chemical to be added to the vial is determined based on the molecular weight and purity. […]
In an embodiment, for the data analysis, the percent depletion of peptide is determined by using the following formula: […]

[5] = system: SkinEthic™ Reconstructed Human Epidermis (RHE); assay: Skin irritation, SkinEthic Reconstructed Human Epidermis (RHE), MTT assay, OECD TG 439; assay type: cell-based; settings: 42 min exposure, 42 h post-incubation, three tissue replicates, relative to PBS control, <50% = irritant, sulfate
Experimental: In an embodiment, skin irritation is evaluated using the SkinEthic™ Reconstructed Human Epidermis (RHE) model (EPISKIN Laboratories, Lyon, France), in compliance with the OECD Test Guideline No. 439-In Vitro Skin Irritation: Reconstructed
Human Epidermis Test Method. The RHE model consists of a differentiated three-dimensional epi-dermal tissue of human keratinocytes grown on a 0.5 cm^2 surface inert polycarbonate filter in a chemically defined medium at the air-liquid interface. Two specific media provided by EPISKIN are used: maintenance and growth media. […] The experiment also includes other inserts treated with PBS or 5% (w/v in water) SDS used as negative and positive controls, respectively. […] Tissue viability is assessed using the MTT (3-(4,5-dimethylthiazol-2-yl)-2,5-diphenyl-2H-tetrazolium bromide) assay. For that, tissues are incubated with MTT (1 mg/mL) at 37° C. for 3h; then the MTT solution was removed, and formazan crystals were dissolved with isopropanol. The absorbance was measured at 570 nm using a SpectraMax Plus 384 Spectrophotometer. […] If the tissue viability value is <50%, the samples are classified as irritants.

[6] = incubated before MI, vs MI alone
[7] = incubated before DNFB, vs DNFB alone

For `CSCC[C@H](N)C(=O)O` [MET, methionine], the GST expression [1, 6] was “significantly decrease”, the NQO1 expression [1, 6] was “significantly decrease” and the “CD54 and CD86 maturation levels, pre-incubation before allergen” value (“CD54 and CD86 maturation levels” for short) (THP-1 cells) was “significantly decrease”.
In the case of `N[C@@H](CCS)C(=O)O` [HOMO, homocysteine], the HMOX1 expression [1, 7] was “significantly decrease”, the SOD1 expression [1, 7] was “significantly decrease” and the TRX1 expression [1, 6] was “significantly decrease”. The “CD54 and CD86 maturation levels” value (THP-1 cells) was “significantly decrease”.
For `O=[N+]([O-])c1ccc(F)c([N+](=O)[O-])c1` [DNFB, 1-fluoro-2,4-dinitrobenzene, reference compound], the “levels of CD54 and CD86, allergen alone” value (THP-1 cells) was “significantly increases; also recorded: increase”, the “presence of eosinophils in the ears (histology)” value (BALB/c mice; DNFB treated ears, FIG. 13B (gel 100 mM)) was “presence of eosinophils” and the “skin ulcerations, allergen alone (mice ears)” value (BALB/c mice) was “induce skin ulcerations”.
In the case of `O=C(O)CN(CCN(CC(=O)O)CC(=O)O)CCN(CC(=O)O)CC(=O)O` [diethylenetriaminepentaacetic], the “prevention of nickel, chromium, and copper dermatitis” value [2] is given as “can prevent”.
For `O=C(O)C(S)C(S)C(=O)O` (stereo not shown) [DMSA, 2,3 dimercaptosuccinic acid], the “CD54 and CD86 maturation levels” value (THP-1 cells) was “significantly decrease”.
For `Cn1sccc1=O` [MI, Methylisothiazolinone, reference compound], the “levels of CD54 and CD86, allergen alone” value (THP-1 cells) was “significantly increases; also recorded: increase” and the “skin ulcerations, allergen alone (mice ears)” value (BALB/c mice) was “induce skin ulcerations”.
In the case of `N[C@@H](CS)C(=O)O` [CYS, cysteine], the HMOX1 expression [1, 7] was “significantly decrease”, the TRX1 expression [1, 7] was “significantly decrease” and the “CD54 and CD86 maturation levels” value (THP-1 cells) was “significantly decrease”. For the same compound, the “reactivity of the strong allergen DNFB towards lysine (Lysine depletion)” value [3] was “significantly inhibit” and the “reactivity of the strong allergen DNFB towards cysteine (Glutathione depletion)” value [4] was “significantly inhibit”.
With `CCCCCCCCCCCCOS(=O)(=O)[O-].[Na+]` [SDS, sodium dodecyl sulfate] the “Tissue viability (%)” value ([5]; listed as SDS (5%)) was 1.41% and 1.44% and 1.62% and the “Tissue viability (%)” value [5] was “significantly decrease”.
With `N[C@@H](CCC(=O)N[C@@H](CS)C(=O)NCC(=O)O)C(=O)O` [GSH, Glutathione] the HMOX1 expression [1, 7] was “significantly decrease”, the SOD1 expression [1, 7] was “significantly decrease” and the HMOX1 expression [1, 6] was “significantly decrease”. The “CD54 and CD86 maturation levels” value (THP-1 cells) was “significantly decrease”.
